The values that follow come from patent publication US9421209B2, “Kinase modulators” (Rhizen Pharmaceuticals SA, priority 2009, dated 2016).

Data set [1] concerns the target P110 δ/Pi3K δ (Homo sapiens, UniProt O00329). Put plainly: Fluorescent (HTRF) determination of PI3K enzyme activity, δ isoform. It is filed as biochemical. Also on record: inhibition: dose or concentration left out as unconfirmed. The method in brief:
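HTRF kit detecting PIP3 formed from PIP2 by human PI3Kδ, at room temperature. Reaction started with 400 μM ATP (addition concentration) for 30 min, then stopped, and detection mix incubated 6–18 h in the dark. Percent inhibition taken against blank and enzyme controls, and IC50 fitted.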

The target of data set [2] is P110α (Homo sapiens, UniProt P42336). Put plainly: Fluorescent (HTRF) determination of PI3K enzyme activity, α isoform. It is filed as biochemical. An excerpt:
(§1) Assay 1: Fluorescent determination of PI3Kinase Kinase enzyme activity
(§2) Phosphoinositide 3 kinases (PI3K) belong to a class of lipid kinases that play a critical role in the regulation of several key cellular processes. The PI3K are capable of phosphorylating the 3-hydroxy position of phosphoinositols thereby generating second messengers involved in downstream signalling events. The homogenous time resolved fluorescence (HTRF) assay allows detection of 3,4,5-triphosphate (PIP3) formed as a result of phosphorylation of phosphotidylinositol 4,5-biphosphate (PIP2) by PI3K isoforms such as α, β, γ or δ.
(§3) PI3K isoform activity for α, β, γ or δ was determined using a PI3K human HTRF™ Assay Kit (Millipore, Billerica, Mass.) with modifications. All incubations were carried out at room temperature. Briefly, 0.5 μl of 40× inhibitor (in 100% DMSO) or 100% DMSO were added to each well of a 384-well black plate (Greiner Bio-One, Monroe, N.C.) containing 14.5 μl 1× reaction buffer/PIP2 (10 mM MgCl2, 5 mM DTT, 1.38 μM PIP2) mix with or without enzyme and incubated for 10 min. After the initial incubation, 5 μl/well of 400 μM ATP was added and incubated for an additional 30 minutes. Reaction was terminated by adding 5 μl/well stop solution (Millipore, Billerica, Mass.). Five microliters of detection mix (Millipore, Billerica, Mass.) were then added to each well and was incubated for 6-18 h in the dark. HRTF ratio was measured on a microplate reader (BMG Labtech., Germany) at an excitation wavelength of 337 nm and emission wavelengths of 665 and 620 nm with an integration time of […]. Data were analyzed using Graphpad Prism (Graphpad software; San Diego Calif.) for IC50 determination. Percent inhibition was calculated based on the values for the blank and enzyme controls. The results are provided below in Table 2 & 3.
In general terms: Time-resolved FRET reads energy transfer from a long-lived donor to a nearby acceptor.

Data set [3] deals with P110β (Homo sapiens, UniProt P42338). Put plainly: Fluorescent (HTRF) determination of PI3K enzyme activity, β isoform. It is filed as biochemical. In a few lines: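 Recombinant human PI3K isoforms incubated 10 min at room temperature with inhibitor and 1.38 μM PIP2 (10 mM MgCl2, 5 mM DTT), then 30 min after adding 400 μM ATP stock. PIP3 formation detected by HTRF (665/620 nm); % inhibition versus blank and enzyme controls gives IC50.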
Sequence of P110β (P42338 whole entry, canonical isoform): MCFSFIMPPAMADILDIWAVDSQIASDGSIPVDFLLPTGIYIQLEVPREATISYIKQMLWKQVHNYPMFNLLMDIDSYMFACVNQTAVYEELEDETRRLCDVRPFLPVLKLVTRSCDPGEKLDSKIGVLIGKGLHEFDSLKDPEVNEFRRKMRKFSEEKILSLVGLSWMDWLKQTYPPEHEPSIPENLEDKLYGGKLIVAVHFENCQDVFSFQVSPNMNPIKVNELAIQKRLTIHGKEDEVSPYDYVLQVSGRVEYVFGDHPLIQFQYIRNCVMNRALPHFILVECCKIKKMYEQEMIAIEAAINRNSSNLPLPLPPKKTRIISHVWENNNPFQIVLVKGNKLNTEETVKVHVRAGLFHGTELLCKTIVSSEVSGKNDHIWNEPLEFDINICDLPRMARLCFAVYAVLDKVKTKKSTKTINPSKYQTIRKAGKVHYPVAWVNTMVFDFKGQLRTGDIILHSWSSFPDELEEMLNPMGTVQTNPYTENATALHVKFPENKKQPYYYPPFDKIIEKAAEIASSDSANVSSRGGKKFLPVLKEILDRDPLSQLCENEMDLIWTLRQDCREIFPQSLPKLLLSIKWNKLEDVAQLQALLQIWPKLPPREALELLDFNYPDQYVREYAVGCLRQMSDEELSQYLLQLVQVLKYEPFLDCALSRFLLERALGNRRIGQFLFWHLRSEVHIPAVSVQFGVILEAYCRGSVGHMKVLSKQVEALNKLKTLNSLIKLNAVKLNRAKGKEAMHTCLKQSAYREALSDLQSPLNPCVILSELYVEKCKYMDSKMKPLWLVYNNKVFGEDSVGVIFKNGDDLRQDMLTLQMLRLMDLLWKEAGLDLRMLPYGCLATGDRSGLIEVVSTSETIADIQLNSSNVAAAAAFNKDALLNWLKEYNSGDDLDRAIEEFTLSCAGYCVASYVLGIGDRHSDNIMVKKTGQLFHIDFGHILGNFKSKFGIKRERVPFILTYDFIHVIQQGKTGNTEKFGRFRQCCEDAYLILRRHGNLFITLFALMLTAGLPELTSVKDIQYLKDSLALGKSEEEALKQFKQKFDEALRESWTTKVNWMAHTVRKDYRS
Sequence of P110β (P27986 whole entry partner, canonical isoform): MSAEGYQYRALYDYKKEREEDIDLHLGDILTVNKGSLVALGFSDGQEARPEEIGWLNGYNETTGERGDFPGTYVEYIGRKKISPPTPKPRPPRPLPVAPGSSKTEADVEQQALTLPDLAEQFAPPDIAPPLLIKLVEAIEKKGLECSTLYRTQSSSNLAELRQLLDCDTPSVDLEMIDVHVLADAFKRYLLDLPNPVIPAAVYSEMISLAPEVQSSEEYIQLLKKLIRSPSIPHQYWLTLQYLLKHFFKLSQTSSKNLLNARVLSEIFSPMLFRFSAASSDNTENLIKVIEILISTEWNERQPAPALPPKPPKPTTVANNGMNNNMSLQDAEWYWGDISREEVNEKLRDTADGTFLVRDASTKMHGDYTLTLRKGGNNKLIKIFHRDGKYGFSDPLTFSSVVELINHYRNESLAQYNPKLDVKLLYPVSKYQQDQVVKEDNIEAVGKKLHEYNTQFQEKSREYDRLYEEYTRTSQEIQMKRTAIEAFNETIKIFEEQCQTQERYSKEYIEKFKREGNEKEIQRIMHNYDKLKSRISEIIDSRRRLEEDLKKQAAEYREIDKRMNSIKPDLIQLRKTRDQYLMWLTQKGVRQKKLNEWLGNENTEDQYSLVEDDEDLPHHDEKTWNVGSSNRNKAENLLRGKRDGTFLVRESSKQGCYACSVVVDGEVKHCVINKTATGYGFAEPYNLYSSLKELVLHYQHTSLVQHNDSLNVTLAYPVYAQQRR

Data set [4] addresses P110γ (Homo sapiens, UniProt P48736). The data set is described as follows: Fluorescent (HTRF) determination of PI3K enzyme activity, γ isoform. It is filed as biochemical.
Excerpt: as §1, §2, §3

Where [5] appears, read: read-out: P110 δ/Pi3K δ IC 50 nM.
Setting [6] is: read-out: P110 δ/ Pi3K δ IC 50 nM.

By inhibition is commonly meant the change of the read-out against control, counted positive when it falls. For orientation: melting point means the temperature, or range, at which the solid turns liquid.

Like-named read-outs stand apart in the source and are kept apart here.

Sequence of P110γ (P48736 whole entry, canonical isoform): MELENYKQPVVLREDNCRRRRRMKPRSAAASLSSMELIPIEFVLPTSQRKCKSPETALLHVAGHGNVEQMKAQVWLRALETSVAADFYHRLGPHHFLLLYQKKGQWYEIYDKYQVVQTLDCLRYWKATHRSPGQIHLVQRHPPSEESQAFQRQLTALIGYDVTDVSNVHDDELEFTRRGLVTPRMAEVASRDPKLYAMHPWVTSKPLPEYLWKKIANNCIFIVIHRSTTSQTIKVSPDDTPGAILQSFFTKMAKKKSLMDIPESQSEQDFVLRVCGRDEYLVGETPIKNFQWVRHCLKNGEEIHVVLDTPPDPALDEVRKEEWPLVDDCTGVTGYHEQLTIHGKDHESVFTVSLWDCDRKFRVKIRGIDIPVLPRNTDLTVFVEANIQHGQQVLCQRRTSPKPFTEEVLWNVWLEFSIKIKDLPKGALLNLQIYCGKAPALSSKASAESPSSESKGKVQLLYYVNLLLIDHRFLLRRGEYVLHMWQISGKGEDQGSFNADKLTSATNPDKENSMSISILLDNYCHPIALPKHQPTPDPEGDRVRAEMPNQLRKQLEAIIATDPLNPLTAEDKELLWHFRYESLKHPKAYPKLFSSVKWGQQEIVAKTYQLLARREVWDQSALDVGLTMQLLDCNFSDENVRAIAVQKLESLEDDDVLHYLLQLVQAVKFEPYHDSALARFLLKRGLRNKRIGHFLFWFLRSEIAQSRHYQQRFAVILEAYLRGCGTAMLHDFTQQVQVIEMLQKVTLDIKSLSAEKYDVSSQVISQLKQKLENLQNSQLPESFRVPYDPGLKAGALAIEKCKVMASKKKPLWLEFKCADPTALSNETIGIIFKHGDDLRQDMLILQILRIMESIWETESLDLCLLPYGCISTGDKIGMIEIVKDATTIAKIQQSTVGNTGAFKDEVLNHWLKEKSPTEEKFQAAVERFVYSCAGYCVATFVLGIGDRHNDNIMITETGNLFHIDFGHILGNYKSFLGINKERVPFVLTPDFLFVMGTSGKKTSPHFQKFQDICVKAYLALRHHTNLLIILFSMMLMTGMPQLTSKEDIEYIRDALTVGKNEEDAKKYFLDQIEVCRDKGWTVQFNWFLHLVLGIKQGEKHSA
Sequence of P110 δ/Pi3K δ (O00329 whole entry, canonical isoform): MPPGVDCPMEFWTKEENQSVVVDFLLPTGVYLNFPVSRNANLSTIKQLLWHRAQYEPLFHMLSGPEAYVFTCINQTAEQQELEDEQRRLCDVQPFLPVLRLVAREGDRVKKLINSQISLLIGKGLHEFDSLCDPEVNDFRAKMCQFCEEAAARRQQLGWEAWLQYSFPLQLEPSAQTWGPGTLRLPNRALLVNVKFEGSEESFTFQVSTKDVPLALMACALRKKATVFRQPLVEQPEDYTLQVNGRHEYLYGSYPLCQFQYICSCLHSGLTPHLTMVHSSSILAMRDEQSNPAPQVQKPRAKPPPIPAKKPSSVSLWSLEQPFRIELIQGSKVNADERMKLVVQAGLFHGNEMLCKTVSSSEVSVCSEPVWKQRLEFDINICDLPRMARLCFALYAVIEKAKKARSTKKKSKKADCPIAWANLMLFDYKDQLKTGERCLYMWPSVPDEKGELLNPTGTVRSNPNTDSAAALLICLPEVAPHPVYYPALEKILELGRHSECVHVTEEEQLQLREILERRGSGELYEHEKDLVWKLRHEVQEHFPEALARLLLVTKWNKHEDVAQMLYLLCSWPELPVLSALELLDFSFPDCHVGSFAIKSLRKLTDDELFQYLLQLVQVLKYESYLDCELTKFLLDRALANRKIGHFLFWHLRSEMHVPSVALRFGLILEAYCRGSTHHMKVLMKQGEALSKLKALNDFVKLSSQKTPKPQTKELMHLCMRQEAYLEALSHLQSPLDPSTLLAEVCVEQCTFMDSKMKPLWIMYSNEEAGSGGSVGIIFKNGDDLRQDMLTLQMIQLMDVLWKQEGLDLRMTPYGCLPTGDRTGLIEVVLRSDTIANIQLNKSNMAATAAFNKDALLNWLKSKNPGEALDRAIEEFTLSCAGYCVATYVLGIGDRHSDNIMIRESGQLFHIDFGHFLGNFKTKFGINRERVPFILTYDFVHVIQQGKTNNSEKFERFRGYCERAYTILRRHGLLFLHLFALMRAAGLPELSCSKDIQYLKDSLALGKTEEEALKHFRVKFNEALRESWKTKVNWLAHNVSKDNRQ
Sequence of P110 δ/Pi3K δ (P27986 whole entry partner, canonical isoform): as the sequence (P27986 whole entry partner, canonical isoform) above
Sequence of P110α (P42336 whole entry, canonical isoform): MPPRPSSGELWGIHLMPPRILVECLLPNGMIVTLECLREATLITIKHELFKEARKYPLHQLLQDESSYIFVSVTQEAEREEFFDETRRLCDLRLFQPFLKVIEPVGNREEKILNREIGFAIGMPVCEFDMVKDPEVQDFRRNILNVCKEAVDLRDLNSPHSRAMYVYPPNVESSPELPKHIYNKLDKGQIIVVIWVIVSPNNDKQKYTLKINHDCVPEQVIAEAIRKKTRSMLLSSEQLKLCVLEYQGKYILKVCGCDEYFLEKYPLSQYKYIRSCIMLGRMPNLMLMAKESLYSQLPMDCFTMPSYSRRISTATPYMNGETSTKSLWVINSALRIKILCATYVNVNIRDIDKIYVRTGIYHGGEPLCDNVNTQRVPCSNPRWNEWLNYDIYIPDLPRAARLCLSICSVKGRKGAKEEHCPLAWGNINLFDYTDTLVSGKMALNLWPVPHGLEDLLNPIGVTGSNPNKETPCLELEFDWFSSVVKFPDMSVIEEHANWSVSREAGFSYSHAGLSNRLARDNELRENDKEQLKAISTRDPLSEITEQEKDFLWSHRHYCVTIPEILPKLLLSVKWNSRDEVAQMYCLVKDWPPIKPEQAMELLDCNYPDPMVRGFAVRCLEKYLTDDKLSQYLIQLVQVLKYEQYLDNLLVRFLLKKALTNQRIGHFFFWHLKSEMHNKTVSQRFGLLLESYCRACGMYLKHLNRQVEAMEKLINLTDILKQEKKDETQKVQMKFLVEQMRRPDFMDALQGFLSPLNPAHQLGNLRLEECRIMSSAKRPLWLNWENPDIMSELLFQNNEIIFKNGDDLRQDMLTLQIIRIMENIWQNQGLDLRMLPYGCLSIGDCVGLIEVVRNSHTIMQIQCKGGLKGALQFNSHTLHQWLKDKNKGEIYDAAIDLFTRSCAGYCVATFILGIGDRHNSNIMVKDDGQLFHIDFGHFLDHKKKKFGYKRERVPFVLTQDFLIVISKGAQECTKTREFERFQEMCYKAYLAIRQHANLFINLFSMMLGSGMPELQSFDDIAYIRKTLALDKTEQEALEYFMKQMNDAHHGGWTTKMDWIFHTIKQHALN
Sequence of P110α (P27986 whole entry partner, canonical isoform): as the sequence (P27986 whole entry partner, canonical isoform) above

`CC(c1oc2ccccc2c(=O)c1-c1cccc(F)c1)n1nc(-c2ccc3c(c2)CCO3)c2c(N)ncnc21` (centres unmarked) [Example 109, 2-(1-(4-amino-3-(2,3-dihydrobenzofuran-5-yl)-1H-pyrazolo[3,4-d]pyrimidin-1-yl)ethyl)-3-(3-fluorophenyl)-4H-chromen-4-one]: the melting point is 238 to 241 °C. Also, the inhibition in data set [1] fell in the range of 50 to 100%. Further, the inhibition at 1 µM in data set [2] is below 25%. The compound further gave an inhibition at 1 µM in data set [3] below 25%. Besides, the inhibition at 1 µM in data set [4] lay in the range of 25 to 50%.

In the case of `C[C@H](Nc1ncnc2[nH]cnc12)c1oc2ccccc2c(=O)c1-c1cccc(F)c1` [Example 47, (S)-2-(1-(9H-purin-6-ylamino)ethyl)-3-(3-fluorophenyl)-4H-chromen-4-one], the melting point lay within 135 to 138 °C. The same compound returned an inhibition at 1 µM in data set [1] of 50 to 100%. In addition, the IC50 in data set [1] (setting [5]) was below 250 nM. Moreover, the inhibition at 1 µM in data set [2] was below 25%. Further, the inhibition at 1 µM in data set [3] was 25 to 50%. Further, the inhibition at 1 µM in data set [4] is 25 to 50%.

With `Cc1c[nH]c2cc(-c3nn(C(C)c4oc5ccccc5c(=O)c4-c4cccc(F)c4)c4ncnc(N)c34)ccc12` (centres unmarked) [Example 111, 2-(1-(4-amino-3-(3-methyl-1H-indol-6-yl)-1H-pyrazolo[3,4-d]pyrimidin-1-yl)ethyl)-3-(3-fluorophenyl)-4H-chromen-4-one], the melting point fell in the range of 269 to 272 °C. Moreover, the inhibition in data set [1] was in the range of 50 to 100%. For the same compound, the inhibition at 1 µM in data set [2] is below 25%. Besides, in data set [3], the inhibition at 1 µM was below 25%. This compound also displayed an inhibition at 1 µM in data set [4] of 50 to 100%.

For the compound `Nc1ncnc2c1c(-c1cccc(O)c1)nn2Cc1oc2ccccc2c(=O)c1-c1ccccc1` [Example 53, 2-((4-Amino-3-(3-hydroxyphenyl)-1H-pyrazolo[3,4-d]pyrimidin-1-yl)methyl)-3-phenyl-4H-chromen-4-one], the melting point fell in the range of 154 to 158 °C. Besides, the inhibition at 1 µM in data set [1] is 50 to 100%. Besides, in data set [1] (setting [5]), the IC50 is below 250 nM. In data set [2], this compound showed an inhibition at 1 µM below 25%. Also, the inhibition at 1 µM in data set [3] is 50 to 100%. The compound further came in with an inhibition at 1 µM in data set [4] below 25%.

`Nc1ncnc2c1c(-c1cc(O)cc(F)c1)nn2Cc1oc2ccccc2c(=O)c1-c1cccc(F)c1` [Example 68, 2-((4-amino-3-(3-fluoro-5-hydroxyphenyl)-1H-pyrazolo[3,4-d]pyrimidin-1-yl)methyl)-3-(3-fluorophenyl)-4H-chromen-4-one] showed a melting point of 235 to 237 °C. The compound also displayed an inhibition at 1 µM in data set [1] of 50 to 100%. The IC50 in data set [1] (setting [5]) is below 250 nM. This compound also registered an inhibition at 1 µM in data set [2] below 25%. The inhibition at 1 µM in data set [3] was 25 to 50%. In data set [4], this compound came in with an inhibition at 1 µM below 25%.

`CC(c1oc2ccccc2c(=O)c1-c1ccccc1)n1nc(-c2cccc(O)c2)c2c(N)ncnc21` (centres unmarked) [Example 42, 2-(1-(4-Amino-3-(3-hydroxyphenyl)-1H-pyrazolo[3,4-d]pyrimidin-1-yl)ethyl)-3-phenyl-4H-chromen-4-one] registered a melting point of 212 to 216 °C. Further, the inhibition at 1 µM in data set [1] was 50 to 100%. For the same compound, in data set [1] (setting [5]), the IC50 is below 250 nM. This compound also displayed an inhibition at 1 µM in data set [2] below 25%. The compound further registered an inhibition at 1 µM in data set [3] of 25 to 50%. The compound also had an inhibition at 1 µM in data set [4] below 25%.

Compound `Nc1ncnc2c1c(-c1cccc(O)c1)nn2Cc1oc2ccccc2c(=O)c1-c1cccc(F)c1` [Example 55, 2-((4-amino-3-(3-hydroxyphenyl)-1H-pyrazolo[3,4-d]pyrimidin-1-yl)methyl)-3-(3-fluorophenyl)-4H-chromen-4-one] yielded a melting point of 280 to 283 °C. In addition, the inhibition at 1 µM in data set [1] was 50 to 100%. Also, in data set [1] (setting [5]), the IC50 was below 250 nM. In data set [2], this compound returned an inhibition at 1 µM below 25%. In addition, in data set [3], the inhibition at 1 µM is below 25%. The compound also came in with an inhibition at 1 µM in data set [4] of 50 to 100%.

Take `Cc1n[nH]c2cc(-c3nn(C(C)c4oc5ccccc5c(=O)c4-c4cccc(F)c4)c4ncnc(N)c34)ccc12` (centres unmarked) [Example 79, 2-(1-(4-amino-3-(3-methyl-1H-indazol-6-yl)-1H-pyrazolo[3,4-d]pyrimidin-1-yl)ethyl)-3-(3-fluorophenyl)-4H-chromen-4-one]: the melting point was 214 to 217 °C. The inhibition in data set [1] fell in the range of 50 to 100%. For the same compound, the IC50 in data set [1] (setting [6]) is below 250 nM. This compound also had an inhibition at 1 µM in data set [2] below 25%. Also, in data set [3], the inhibition at 1 µM was 25 to 50%. This compound gave an inhibition at 1 µM in data set [4] of 25 to 50%.

With `Cc1n[nH]c2cc(-c3nn([C@H](C)c4oc5ccccc5c(=O)c4-c4cccc(F)c4)c4ncnc(N)c34)ccc12` (single isomer, unassigned) [Example 128, (+)-2-(1-(4-amino-3-(3-methyl-1H-indazol-6-yl)-1H-pyrazolo[3,4-d]pyrimidin-1-yl)ethyl)-3-(3-fluorophenyl)-4H-chromen-4-one], in data set [1] (setting [6]), the IC50 is below 250 nM. The inhibition at 1 µM in data set [2] was below 25%; in data set [3], below 25%; in data set [4], 25 to 50%.
